Measured values: the supplement of paper PMC8617591

How the values were obtained:
[1] = system: Mycobacterium tuberculosis Erdman (autoluminescent); assay: FIC90 (Loewe) at 90% inhibition (log2); higher = more antagonistic
Procedure: (§1)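 DiaMOND equipotent two-drug combination dose responses against autoluminescent M. tuberculosis Erdman in 8 in vitro models. Read-out is OD600, or luminescence for the intracellular and dormancy models, normalised to untreated wells. Hill-fit Einf, AUC25 and GRinf are potency metrics; FIC50 and FIC90 are Loewe-additivity fractional inhibitory concentrations, given as log2 (negative = synergy). Replicates are averaged.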

[2] = system: Mycobacterium tuberculosis Erdman (autoluminescent); assay: AUC25, normalised area under dose response up to IC25 (fraction (0-1)); higher = more potent at low dose
Procedure: as §1

[3] = system: Mycobacterium tuberculosis Erdman (autoluminescent); assay: FIC50 (Loewe) at 50% inhibition (log2); higher = more antagonistic
Procedure: as §1

[4] = system: Mycobacterium tuberculosis Erdman (autoluminescent); assay: Einf, fitted maximum growth inhibition of combination (fraction); higher = stronger maximal inhibition
Procedure: as §1

[5] = system: Mycobacterium tuberculosis Erdman (autoluminescent); assay: GRinf, maximum normalised growth rate inhibition (unitless (-1 to 1)); higher = less effect (negative = killing)
Procedure: as §1

COc1c(N2C[C@@H]3CCCN[C@@H]3C2)c(F)cc2c(=O)c(C(=O)O)cn(C3CC3)c12 [moxifloxacin] + NC(=O)c1cnccn1 [pyrazinamide]
Details	AUC25, [2]	Einf, [4]	FIC50, [3]	FIC90, [1]	GRinf, [5]
in vitro model: acidic pH 5.7, time point: constant (~7 days, model-specific)	0.105	0.748	-1.4	–	-0.479
in vitro model: acidic pH 5.7, time point: terminal (~4-5 doublings, model-specific)	0.0766	0.958	0.112	-1.08	-0.337
in vitro model: intracellular J774, time point: constant = terminal	–	0.992	–	0.544	-0.418

Details	AUC25, [2]	Einf, [4]	FIC50, [3]	FIC90, [1]	GRinf, [5]
in vitro model: butyrate, time point: constant (~7 days, model-specific)	0.114	0.922	0.244	0.945	-0.0871
in vitro model: butyrate, time point: terminal (~4-5 doublings, model-specific)	0.076	0.967	0.181	0.416	0.0175
in vitro model: cholesterol 0.05 mM, time point: constant (~7 days, model-specific)	0.12	0.628	–	–	0.0508
in vitro model: cholesterol 0.05 mM, time point: terminal (~4-5 doublings, model-specific)	0.135	0.936	-0.139	1.9	-0.173
in vitro model: cholesterol-high 0.2 mM, time point: constant (~7 days, model-specific)	0.0967	0.93	0.32	–	-0.314
in vitro model: cholesterol-high 0.2 mM, time point: terminal (~4-5 doublings, model-specific)	0.0857	0.997	0.528	0.356	-0.695
in vitro model: dormancy (butyrate + nitrate, low O2), time point: constant (~7 days, model-specific)	0.0895	0.921	-0.473	-0.106	0.0154
in vitro model: dormancy (butyrate + nitrate, low O2), time point: terminal (~4-5 doublings, model-specific)	0.0636	0.983	-0.404	-0.148	-0.105
in vitro model: standard 7H9 glycerol, time point: constant = terminal	0.0774	0.974	–	–	-0.163
in vitro model: valerate, time point: constant (~7 days, model-specific)	0.0818	0.834	0.51	–	-0.121
in vitro model: valerate, time point: terminal (~4-5 doublings, model-specific)	0.0462	0.917	0.399	0.0879	0.0483

COc1c(N2C[C@@H]3CCCN[C@@H]3C2)c(F)cc2c(=O)c(C(=O)O)cn(C3CC3)c12 [moxifloxacin] + O=[N+]([O-])c1cn2c(n1)OC[C@@H](OCc1ccc(OC(F)(F)F)cc1)C2 [pretomanid]
Details	AUC25, [2]	Einf, [4]	FIC50, [3]	FIC90, [1]	GRinf, [5]
in vitro model: acidic pH 5.7, time point: constant (~7 days, model-specific)	0.139	0.846	0.225	–	-0.773
in vitro model: acidic pH 5.7, time point: terminal (~4-5 doublings, model-specific)	0.107	0.976	-0.052	0.879	-0.428
in vitro model: intracellular J774, time point: constant = terminal	–	0.993	–	-0.156	-0.437

Details	AUC25, [2]	Einf, [4]	FIC50, [3]	FIC90, [1]	GRinf, [5]
in vitro model: butyrate, time point: constant (~7 days, model-specific)	0.0964	0.947	0.526	0.61	-0.0779
in vitro model: butyrate, time point: terminal (~4-5 doublings, model-specific)	0.0655	0.973	0.406	0.607	-0.07
in vitro model: cholesterol 0.05 mM, time point: constant (~7 days, model-specific)	0.119	0.751	0.221	–	-0.223
in vitro model: cholesterol 0.05 mM, time point: terminal (~4-5 doublings, model-specific)	0.105	0.938	0.248	0.691	-0.248
in vitro model: cholesterol-high 0.2 mM, time point: constant (~7 days, model-specific)	0.103	0.952	0.238	1.96	-0.404
in vitro model: cholesterol-high 0.2 mM, time point: terminal (~4-5 doublings, model-specific)	0.0655	1	0.457	0.364	-0.745
in vitro model: dormancy (butyrate + nitrate, low O2), time point: constant (~7 days, model-specific)	0.0724	0.898	0.568	0.524	0.165
in vitro model: dormancy (butyrate + nitrate, low O2), time point: terminal (~4-5 doublings, model-specific)	0.0602	0.96	0.607	0.936	-0.142
in vitro model: standard 7H9 glycerol, time point: constant = terminal	0.0929	0.978	-0.329	0.198	-0.166
in vitro model: valerate, time point: constant (~7 days, model-specific)	0.12	0.9	-0.0268	–	-0.302
in vitro model: valerate, time point: terminal (~4-5 doublings, model-specific)	0.102	0.968	-0.156	0.429	-0.0344
